The molecules below were run against PIK3CG (human) (UniProt P48736) (assay: Assessment of PIK3CG Kinase Activity).
PIK3CG (human), sequence (P48736 whole entry, looked up): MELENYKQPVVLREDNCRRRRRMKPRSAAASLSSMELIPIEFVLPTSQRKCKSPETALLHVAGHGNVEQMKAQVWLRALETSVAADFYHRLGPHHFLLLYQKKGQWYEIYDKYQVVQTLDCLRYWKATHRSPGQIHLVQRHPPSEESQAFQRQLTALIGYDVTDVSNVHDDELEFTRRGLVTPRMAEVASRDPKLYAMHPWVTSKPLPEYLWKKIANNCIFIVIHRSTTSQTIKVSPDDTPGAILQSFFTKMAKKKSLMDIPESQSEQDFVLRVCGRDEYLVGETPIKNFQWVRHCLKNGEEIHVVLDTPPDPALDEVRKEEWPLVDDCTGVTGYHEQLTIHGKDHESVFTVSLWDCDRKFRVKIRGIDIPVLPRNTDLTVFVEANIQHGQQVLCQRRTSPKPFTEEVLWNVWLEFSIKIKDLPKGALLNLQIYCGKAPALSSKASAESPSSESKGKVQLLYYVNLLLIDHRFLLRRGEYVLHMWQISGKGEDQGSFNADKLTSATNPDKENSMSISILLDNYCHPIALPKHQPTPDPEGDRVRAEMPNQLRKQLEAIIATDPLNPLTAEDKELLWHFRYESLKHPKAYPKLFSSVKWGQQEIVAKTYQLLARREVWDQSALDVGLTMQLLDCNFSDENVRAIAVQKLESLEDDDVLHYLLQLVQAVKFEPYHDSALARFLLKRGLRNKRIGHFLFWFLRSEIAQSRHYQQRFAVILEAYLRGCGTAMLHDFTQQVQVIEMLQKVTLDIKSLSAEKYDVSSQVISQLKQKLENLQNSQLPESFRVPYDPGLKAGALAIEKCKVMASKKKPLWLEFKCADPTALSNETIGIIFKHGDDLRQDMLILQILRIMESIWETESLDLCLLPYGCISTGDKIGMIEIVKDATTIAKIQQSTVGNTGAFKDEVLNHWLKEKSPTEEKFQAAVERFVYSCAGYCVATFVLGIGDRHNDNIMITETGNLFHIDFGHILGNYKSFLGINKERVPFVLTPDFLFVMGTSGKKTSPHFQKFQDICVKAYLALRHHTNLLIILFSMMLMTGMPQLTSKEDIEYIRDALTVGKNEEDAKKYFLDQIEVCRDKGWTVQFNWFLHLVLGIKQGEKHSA
`Cc1nc(NC(=O)NCCn2cnc(C(F)(F)F)c2)sc1C#Cc1ccncc1` was tested, and the Ki was 50 to 250 nM.
Molecule `Cc1nc(NC(=O)NC2COc3ccccc3C2)sc1C#Cc1ccncc1` (centres undefined) has a Ki of 50 to 250 nM.
Molecule `COc1ncc(C#Cc2sc(NC(=O)NCCOCC3CC3)nc2C)cn1` has a Ki of less than 50 nM.
`Cc1nc(NC(=O)NCCC(=O)NC(C)(C)C)sc1C#Cc1ccncc1` was tested, and the Ki was less than 50 nM.
With `Cc1nc(NC(=O)NCCOCC(F)(F)F)sc1C#Cc1ccncc1` the Ki was 50 to 250 nM.
`COc1cc(C#Cc2sc(NC(=O)NCCOc3ccccn3)nc2C)cnc1OC` showed a Ki of less than 50 nM.
With `Cc1nc(NC(=O)NCCOC(=O)c2ccccc2)sc1C#Cc1ccncc1` the Ki was less than 50 nM.
`COc1cc(C#Cc2sc(NC(=O)NCCOCC3CC3)nc2C)cnc1Cl` was tested, and the Ki was 50 to 250 nM.
With `Cc1nc(NC(=O)NCCc2nccs2)sc1C#Cc1ccncc1` the Ki was 50 to 250 nM.
`Cc1nc(NC(=O)NCCOc2ccc(F)cc2)sc1C#Cc1ccncc1` showed a Ki of less than 50 nM.
Molecule `CC(=O)NCC(=O)Nc1nc(C)c(C#Cc2ccncc2)s1` has a Ki of less than 50 nM.
For `CCc1nc(NC(C)=O)sc1C#Cc1ccncc1`, the Ki was 50 to 250 nM.
In the case of `Cc1nc(NC(=O)CNC(=O)c2ccccn2)sc1C#Cc1cccnc1`, the Ki is reported as less than 50 nM.
With `COCCNC(=O)Nc1nc(C)c(C#Cc2ccncc2)s1` the Ki was less than 50 nM.
`Cc1nc(NC(=O)NCCOCC2CC2)sc1C#Cc1cncc(C(F)(F)F)c1` gave a Ki of 50 to 250 nM.
Work on `Cc1nc(NC(=O)NCC2Cc3ccccc3O2)sc1C#Cc1ccncc1` (centres undefined) yielded a Ki of less than 50 nM.
In the case of `CCn1cnc(CCNC(=O)Nc2nc(C)c(C#Cc3ccncc3)s2)c1Cl`, the Ki is reported as less than 50 nM.
Work on `COc1ccc(C#Cc2sc(NC(C)=O)nc2C)cc1` yielded a Ki of 50 to 250 nM.
Work on `Cc1cccc(NC(=O)CC(=O)Nc2nc(C)c(C#Cc3ccncc3)s2)c1` yielded a Ki of 50 to 250 nM.
With `Cc1nc(NC(=O)NCCOCC2CC2)sc1C#Cc1cccnc1` the Ki was less than 50 nM.
In the case of `Cc1nc(NC(=O)NCCOCC2CC2)sc1C#Cc1cccc2ncccc12`, the Ki is reported as less than 50 nM.
With `Cc1nc(NC(=O)NCCn2nnc3ccccc32)sc1C#Cc1ccncc1` the Ki was 50 to 250 nM.
With `CCc1cnn(CCNC(=O)Nc2nc(C)c(C#Cc3ccncc3)s2)c1` the Ki was less than 50 nM.
`Cc1nc(NC(=O)NCCOCC2CC2)sc1C#Cc1ccc(Cl)nc1` gave a Ki of 50 to 250 nM.
`Cc1nc(NC(=O)COc2ccccc2)sc1C#Cc1ccncc1` showed a Ki of 50 to 250 nM.
`Cc1nc(NC(=O)NCCC(=O)OC(C)(C)C)sc1C#Cc1ccccc1` gave a Ki of less than 50 nM.
Molecule `CC(=O)Nc1nc(C)c(C#Cc2cccc(C)c2)s1` has a Ki of 50 to 250 nM.
`Cc1nc(NC(=O)NCCOCC2CC2)sc1C#Cc1cc(Cl)ncc1F` was tested, and the Ki was less than 50 nM.
With `Cc1nc(NC(=O)NCCc2cn(CCF)cn2)sc1C#Cc1ccncc1` the Ki was less than 50 nM.
For `Cc1nc(NC(=O)NC[C@H](C)OCC2CC2)sc1C#Cc1ccc2nccnc2c1`, the Ki was less than 50 nM.
With `Cc1nc(NC(=O)NCCC(=O)c2ccccc2)sc1C#Cc1ccncc1` the Ki was less than 50 nM.
For `Cc1nc(NC(=O)CCC(=O)OC(C)(C)C)sc1C#Cc1ccncc1`, the Ki was 50 to 250 nM.
In the case of `Cc1nc(NC(=O)NCCOCC2CC2)sc1C#Cc1ccc2nccn2c1`, the Ki is reported as less than 50 nM.
`Cc1nc(NC(=O)NCCc2cn(C(C)C)cn2)sc1C#Cc1ccncc1` was tested, and the Ki was less than 50 nM.
For `CC(=O)Nc1nc(C)c(C#Cc2cccc(F)c2)s1`, the Ki was 50 to 250 nM.
`Cc1nc(NC(=O)NCCO)sc1C#Cc1ccncc1` gave a Ki of less than 50 nM.
Molecule `Cc1nc(NC(=O)NCCOCC2CC2)sc1C#Cc1cnc(Cl)c(F)c1` has a Ki of 50 to 250 nM.
`Cc1nc(NC(=O)NCCOc2ccccc2)sc1C#Cc1cccnc1` was tested, and the Ki was less than 50 nM.
`Cc1nc(NC(=O)NCCC(=O)NCC(F)(F)F)sc1C#Cc1ccccc1` showed a Ki of 50 to 250 nM.
Work on `CCOC(=O)CCCNC(=O)Nc1nc(C)c(C#Cc2ccncc2)s1` yielded a Ki of less than 50 nM.
`CCC(O)CNC(=O)Nc1nc(C)c(C#Cc2cncc(OC)c2)s1` (centres undefined) showed a Ki of less than 50 nM.
`COc1ccc(CNC(=O)Nc2nc(C)c(C#Cc3ccncc3)s2)cc1` gave a Ki of less than 50 nM.
With `Cc1nc(NC(=O)CCNC(=O)c2ccccn2)sc1C#Cc1cccnc1` the Ki was less than 50 nM.
`CCOC(=O)CCNC(=O)Nc1nc(C)c(C#Cc2ccncc2)s1` was tested, and the Ki was less than 50 nM.
`Cc1nc(NC(=O)NCC2CCCO2)sc1C#Cc1ccncc1` (centres undefined) was tested, and the Ki was less than 50 nM.
`CC(=O)Nc1nc(C)c(C#Cc2ccccc2)s1` was tested, and the Ki was 50 to 250 nM.
Molecule `COC1CN(C(=O)Nc2nc(C)c(C#Cc3ccncc3)s2)C1` has a Ki of less than 50 nM.
`COc1cc(C#Cc2sc(NC(=O)NCCOc3cccnc3)nc2C)cnc1OC` showed a Ki of less than 50 nM.
`CC(=O)N1CC(C(=O)Nc2nc(C)c(C#Cc3ccncc3)s2)C1` was tested, and the Ki was 50 to 250 nM.
With `CCCCOCCCNC(=O)Nc1nc(C)c(C#Cc2ccncc2)s1` the Ki was less than 50 nM.
Molecule `Cc1nc(NC(=O)NC[C@H](C)O)sc1C#Cc1ccncc1` has a Ki of less than 50 nM.
For `Cc1nc(NC(=O)CCCC(=O)NCC(F)(F)F)sc1C#Cc1ccncc1`, the Ki was 50 to 250 nM.
Molecule `CC(=O)Nc1nc(C)c(C#Cc2cccc(N)c2)s1` has a Ki of 50 to 250 nM.
`CCc1cnc(CCNC(=O)Nc2nc(C)c(C#Cc3ccncc3)s2)s1` gave a Ki of less than 50 nM.
`Cc1nc(NC(=O)NCCOCC2CC2)sc1C#Cc1cc(F)ncc1Cl` showed a Ki of less than 50 nM.
`COc1ccc(C#Cc2sc(NC(=O)NCCOCC3CC3)nc2C)cc1OC` showed a Ki of less than 50 nM.
`COC(=O)CCCC(=O)Nc1nc(C)c(C#Cc2ccncc2)s1` was tested, and the Ki was 50 to 250 nM.
`Cc1nc(NC(=O)NCCOc2ccccc2F)sc1C#Cc1ccncc1` showed a Ki of less than 50 nM.
Molecule `CC(=O)Nc1nc(C)c(C#Cc2ccsc2)s1` has a Ki of 50 to 250 nM.
For `Cc1nc(NC(=O)NCCOCC2CC2)sc1C#Cc1cccnc1Cl`, the Ki was less than 50 nM.
`COC(=O)c1ccn2cc(CCNC(=O)Nc3nc(C)c(C#Cc4ccncc4)s3)nc2c1` gave a Ki of 50 to 250 nM.
Molecule `Cc1nc(NC(=O)NCCc2ccccn2)sc1C#Cc1ccncc1` has a Ki of less than 50 nM.
Molecule `COc1ccc(C#Cc2sc(NC(=O)NC[C@H](C)C(=O)NC(C)(C)C)nc2C)cn1` has a Ki of less than 50 nM.
`CCc1cnc(CCNC(=O)Nc2nc(C)c(C#Cc3cncc(OC)c3)s2)s1` was tested, and the Ki was less than 50 nM.
